Reference: patent US10954221B2, “GLP-1R agonists and uses thereof” (QILU REGOR THERAPEUTICS INC., priority 2019, dated 2021)

Tests used:
GLP1R [1] = target: T1, GLP1R (Homo sapiens, UniProt P43220); design: Emax: dose or concentration left out as unconfirmed; conditions: for Emax: CHO-K1, […], read-out: β-arrestin recruitment Bmax (%); for β-arrestin recruitment Bmax (%): partial maximum relative effect at the highest concentration tested (top 10 μM), relative to Bmax of GLP-1 (7-37), PathHunter CHO-K1 GLP1R β-Arrestin cells
Target sequence in this assay (P43220 24-463): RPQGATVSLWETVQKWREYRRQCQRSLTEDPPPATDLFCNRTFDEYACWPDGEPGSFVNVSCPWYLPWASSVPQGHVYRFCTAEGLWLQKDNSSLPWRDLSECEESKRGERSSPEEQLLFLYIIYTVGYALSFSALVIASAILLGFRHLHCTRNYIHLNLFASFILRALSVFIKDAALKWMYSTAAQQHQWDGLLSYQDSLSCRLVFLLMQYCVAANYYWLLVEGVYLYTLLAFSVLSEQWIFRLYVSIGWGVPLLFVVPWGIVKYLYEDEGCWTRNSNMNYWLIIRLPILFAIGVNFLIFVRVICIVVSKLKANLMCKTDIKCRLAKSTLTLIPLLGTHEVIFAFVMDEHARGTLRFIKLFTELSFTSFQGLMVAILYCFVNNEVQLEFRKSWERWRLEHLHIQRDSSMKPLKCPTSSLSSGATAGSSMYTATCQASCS
Target sequence in this assay (P32121 whole entry partner): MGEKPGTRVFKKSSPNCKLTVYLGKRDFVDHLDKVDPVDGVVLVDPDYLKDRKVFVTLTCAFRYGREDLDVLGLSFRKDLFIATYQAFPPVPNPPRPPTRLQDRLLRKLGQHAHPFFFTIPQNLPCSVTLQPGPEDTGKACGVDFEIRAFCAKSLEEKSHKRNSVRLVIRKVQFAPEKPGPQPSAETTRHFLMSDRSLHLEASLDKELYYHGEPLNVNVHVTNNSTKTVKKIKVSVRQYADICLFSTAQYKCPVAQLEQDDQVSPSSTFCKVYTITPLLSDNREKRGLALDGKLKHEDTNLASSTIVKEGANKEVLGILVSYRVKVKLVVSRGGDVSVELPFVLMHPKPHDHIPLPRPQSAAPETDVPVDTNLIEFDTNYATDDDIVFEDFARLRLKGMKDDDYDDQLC
Procedure: Frozen cells were quickly thawed and 10 mL of cell plating medium (provided by the kit) was added to thawed cells. Cells were stored in a 37° C. incubator under 5% CO2 and kept for approximately 48 hours until ready to run the assay.
Reference and test compounds were dissolved in 100% DMSO. […] 5 μL of this solution was added to 20 μL cell medium in assay plate for a final top concentration of 10 μM. Plates were then incubated at 37° C. under 5% CO2 for 90 min.
Following 90 min incubation, detection reagents were made up by combining 1 part Galacton Star Substrate with 5 parts Emerald II™ Solution, and 19 parts of PathHunter Cell Assay Buffer, respectively. 12.5 μl detection reagent was added to each well. The plates were then incubated at room temperature in dark for 60 min. Plates were then read on Envision for 0.1 sec/well.
Cells were plated at a density of 1000 or 2000 cells/20 μL/well. Frozen cells were quickly thawed and added to 10 mL of cell plating medium. Cells were stored in a 37 degree incubator under 5% CO2 and left for approximately 48 hours until ready to run the assay
Prepare 10× concentration of an agonist in serum free DMEM, and add all solutions into the compound plate. 2.5 μL of this solution was added to 20 μL cell medium in assay plate for a final top concentration of 10 μM. Plates were incubated at 37° C. under 5% CO2 for 30 min. An additional 2.5 μL of Buffer was added to the entire plate for agonist mode and incubated at 37° C. for another 90 min.
Following 90 min incubation, detection reagents were made up as described. 12.5 μL was added to all wells. The plates were then incubated at room temperature in dark for 60 min. Plates were then read on Envision for 0.1 sec/well.
Data analysis: GraphPad Prism 6 was used for establishment of progression curve. EC50s or IC50s were determined by 4-parameter logistic dose response equation.

GLP1R [2] = target: T1, GLP1R; assay: β-Arrestin-mediated GLP1R internalization assay (PathHunter U2OS cells); type: cell-based; design: host or cells: PathHunter engineered U2OS cells; conditions: averaged Bmax where applicable, Percentage of Control GLP-1 (7-37), top 10 μM, 180 min
Excerpt: A similar assay can also be used to assess the extent of signal attenuation due to GLP-1R internalization (the Internalization Assay). In this assay, activated GLP1R Internalization cells were engineered to co-express an untagged GLP1R, Enzyme Acceptor (EA) tagged β-Arrestin, and a ProLink™ (PK) tag localized to the endosomes. Activation of the GLP1R induces β-Arrestin recruitment, which leads to internalization of the Receptor/Arrestin-EA complex in PK-tagged endosomes. This forces complementation of the two β-galactosidase enzyme fragments (EA and PK) to form a functional enzyme that hydrolyzes substrate to generate a chemiluminescent signal.
Frozen cells were quickly thawed and 10 mL of cell plating medium (provided by the kit) was added to thawed cells. Cells were stored in a 37° C. incubator and kept for approximately 48 hours until ready for the assay.
Reference and test compounds were dissolved in 100% DMSO. […] 5 μL of this solution was added to 20 μL cell medium in assay plate for a final top concentration of 10 μM. Plates were incubated at 37° C. for 180 min.
Following 180 min incubation, detection reagents were made up by combining 1 part Galacton Star Substrate with 5 parts Emerald II™ Solution, and 19 parts of PathHunter Cell Assay Buffer, respectively. 12.5 μL detection reagent was added to each well. The plates were then incubated at room temperature for 60 min. Plates were then read on Envision for 0.1 sec/well.
EC50 determinations were made from agonist dose-response curves analyzed with a curve fitting program using a 4-parameter logistic dose response equation.
Target sequence in this assay (P43220 24-463): as the sequence (P43220 24-463) above
Target sequence in this assay (P32121 whole entry partner): as the sequence (P32121 whole entry partner) above

GLP1R [3] = target: T1, GLP1R; assay: GLP1R cAMP assay (HTRF), HEK293/GLP-1R/CRE/Luc, Clone 4
Target sequence in this assay (P43220 24-463): as the sequence (P43220 24-463) above
Procedure: GLP-1R-mediated agonist activity was determined with a cell-based functional assay utilizing an HTRF (Homogeneous Time-Resolved Fluorescence) cAMP detection kit (cAMP Dynamic 2 Assay Kit; CisBio cat #62AM4PEC) that measures cAMP levels in the cell. The method is a competitive immunoassay between native cAMP produced by the cells and exogenous cAMP labeled with the dye d2. The tracer binding is visualized by a mAb anti-cAMP labeled with Cryptate. The specific signal (i.e., energy transfer) is inversely proportional to the concentration of cAMP in either standard or experimental sample.
The human GLP-1R coding sequence (NCBI Reference Sequence NM_002062) was subcloned into pcDNA3.1+/Hygro vector (Invitrogen) and transfected into HEK293/CRE/Luc parental cell line. A cell line stably expressing the receptor was isolated.
Varying concentrations of each compound to be tested (in DMSO) were diluted in DMSO to obtain 200× compound working solution first and then 50 nl compounds were added to a white 384-well assay plate (Greiner 784075) with ECHO. The final DMSO concentration was 0.5%.
Cells were removed from cryopreservation, re-suspended in 5 mL of Dulbecco's Phosphate Buffered Saline (DPBS-Sigma Cat #D8537) and centrifuged at 900×g for 5 min at 22° C. The cell pellet was then re-suspended in 1 mL of assay buffer [DPBS with 500 μM IBMX (Sigma #15879) and 0.1% BSA (Sigma #A1933). IBMX and BSA were freshly added on the day of assay]. A 10 μL sample of the cell suspension was counted on an Invitrogen Countess II to determine cell viability and cell count per mL. The remaining cell suspension was then adjusted with assay buffer to deliver 1000 viable cells per well using a Matrix Combi Multidrop reagent dispenser. 10 μL cell suspensions were added to each well
of the assay plate which already contains compound. The plate was sealed and incubated at 37° C. with 5% CO2 for 30 minutes.
Following the 30 minute incubation, 5 μL of labeled d2 cAMP and 5 μL of anti-cAMP antibody (both diluted 1:20 in cell lysis buffer; as described in the manufacturer's assay protocol) were added to each well of the assay plate. The plates were then incubated at room temperature and after 60 minutes, changes in the HTRF signal were read with an Envision multi-label plate reader using excitation of 330 nm and emissions of 615 and 665 nm. Raw data were converted to nM cAMP by interpolation from a cAMP standard curve (as described in the manufacturer's assay protocol) and the percent effect was determined relative to a saturating concentration of the full agonist GLP-17-37 (10 nM) included on each plate. EC50 determinations were made from agonist dose-response curves analyzed with a curve fitting program using a 4-parameter logistic dose response equation.

| Structure (SMILES) | Emax (GLP1R [1]) [%] | β-arrestin internalization Bmax (POC) (GLP1R [2]) | EC50 (GLP1R [3]) [nM] | β-arrestin recruitment Bmax (%) (GLP1R [1]) |
| --- | --- | --- | --- | --- |
| N#Cc1ccc(COc2cccc(-c3ccc(Cc4nc5ccc(C(=O)O)c(F)c5n4C[C@@H]4CCO4)cc3F)n2)c(F)c1 [Compound 307, (S)-2-(4-(6-((4-cyano-2-fluorobenzyl)oxy)pyridin-2-yl)-3-fluorobenzyl)-7-fluoro-1-(oxetan-2-ylmethyl)-1H-benzo[d]imidazole-6-carboxylic acid] | 46.8 ± 7.21 | 33.8 ± 2.73 | < 15 | – |
| O=C(O)c1ccc2nc(Cc3ccc(-c4cccc(OCc5ccc(Cl)cc5F)c4)c(F)c3)n(C[C@@H]3CCO3)c2c1 [Compound 76, (S)-2-((3′-((4-chloro-2-fluorobenzyl)oxy)-2-fluoro-[1,1′-biphenyl]-4-yl)methyl)-1-(oxetan-2-ylmethyl)-1H-benzo[d]imidazole-6-carboxylic acid] | 25.1 | 21.6 | < 15 | – |
| O=C(O)c1ccc2nc(Cc3ccc(-c4cccc(OCc5ccc(Cl)cc5F)c4)cc3F)n(C[C@@H]3CCO3)c2c1 [Compound 89, (S)-2-((3′-((4-chloro-2-fluorobenzyl)oxy)-3-fluoro-[1,1′-biphenyl]-4-yl)methyl)-1-(oxetan-2-ylmethyl)-1H-benzo[d]imidazole-6-carboxylic acid] | 25.3 | 20.0 | < 15 | – |
| O=C(O)c1ccc2nc(Cc3ccc(-c4ccnc(OCc5ccc(Cl)cc5F)n4)cc3F)n(C[C@@H]3CCO3)c2c1 [Compound 87, (S)-2-(4-(2-((4-chloro-2-fluorobenzyl)oxy)pyrimidin-4-yl)-2-fluorobenzyl)-1-(oxetan-2-ylmethyl)-1H-benzo[d]imidazole-6-carboxylic acid] | 33.1 | 23.9 | < 15 | – |
| O=C(O)c1ccc2nc(Cc3ccc(-c4nccc(OCc5ccc(Cl)cc5F)n4)cc3F)n(C[C@@H]3CCO3)c2c1 [Compound 86, (S)-2-(4-(4-((4-chloro-2-fluorobenzyl)oxy)pyrimidin-2-yl)-2-fluorobenzyl)-1-(oxetan-2-ylmethyl)-1H-benzo[d]imidazole-6-carboxylic acid] | 33.5 | 41.8 | < 15 | – |
| O=C(O)c1ccc2nc(Cc3ccc(-c4cc(OCc5ccc(Cl)cc5F)ccc4F)c(F)c3)n(C[C@@H]3CCO3)c2c1 [Compound 79, (S)-2-((5′-((4-chloro-2-fluorobenzyl)oxy)-2,2′-difluoro-[1,1′-biphenyl]-4-yl)methyl)-1-(oxetan-2-ylmethyl)-1H-benzo[d]imidazole-6-carboxylic acid] | 19.7 | 9.25 | 15 to 150 | – |
| O=C(O)c1ccc2nc(Cc3ccc(-c4ccnc(OCc5ccc(Cl)cc5F)n4)c(F)c3)n(C[C@@H]3CCO3)c2c1 [Compound 80, (S)-2-(4-(2-((4-chloro-2-fluorobenzyl)oxy)pyrimidin-4-yl)-3-fluorobenzyl)-1-(oxetan-2-ylmethyl)-1H-benzo[d]imidazole-6-carboxylic acid] | 31.6 | 21.2 | < 15 | – |
| O=C(O)c1ccc2nc(Cc3ccc(-c4cccc(OCc5ccc(Cl)cc5F)n4)c(F)c3F)n(C[C@@H]3CCO3)c2c1 [Compound 262, (S)-2-(4-(6-(4-chloro-2-fluorobenzyloxy)pyridin-2-yl)-2,3-difluorobenzyl)-1-(oxetan-2-ylmethyl)-1H-benzo[d]imidazole-6-carboxylic acid] | 47.3 ± 4.55 | 25.4 ± 1.39 | < 15 | – |
| O=C(O)c1ccc2nc(Cc3ccc(-c4cccc(OCc5ccc(Cl)cc5F)n4)c(F)c3)n(C[C@@H]3CCO3)c2c1 [Compound 74, (S)-2-(4-(6-((4-chloro-2-fluorobenzyl)oxy)pyridin-2-yl)-3-fluorobenzyl)-1-(oxetan-2-ylmethyl)-1H-benzo[d]imidazole-6-carboxylic acid] | – | 17.0 | < 15 | 32.1 |
| O=C(O)c1ccc2nc(Cc3ccc(-c4ncc(F)c(OCc5ccc(Cl)cc5F)n4)c(F)c3)n(C[C@@H]3CCO3)c2c1 [Compound 81, (S)-2-(4-(4-(4-chloro-2-fluorobenzyloxy)-5-fluoropyrimidin-2-yl)-3-fluorobenzyl)-1-(oxetan-2-ylmethyl)-1H-benzo[d]imidazole-6-carboxylic acid] | 37.2 | 30.6 | < 15 | – |
| O=C(O)c1ccc2nc(Cc3ccc(-c4ncc(F)c(OCc5ccc(F)cc5F)n4)cc3F)n(C[C@@H]3CCO3)c2n1 [Compound 285, (S)-2-(4-(4-((2,4-difluorobenzyl)oxy)-5-fluoropyrimidin-2-yl)-2-fluorobenzyl)-3-(oxetan-2-ylmethyl)-3H-imidazo[4,5-b]pyridine-5-carboxylic acid] | 24 | – | < 15 | – |
| N#Cc1ccc(COc2cccc(-c3ccc(Cc4nc5ccc(C(=O)O)cc5n4C[C@@H]4CCO4)cc3F)n2)c(F)c1 [Compound 75, (S)-2-(4-(6-(4-cyano-2-fluorobenzyloxy)pyridin-2-yl)-3-fluorobenzyl)-1-(oxetan-2-ylmethyl)-1H-benzo[d]imidazole-6-carboxylic acid] | 30.4 ± 1.15 | 20.8 ± 10.2 | < 15 | – |
| O=C(O)c1ccc2nc(CN3CC=C(c4scnc4OCc4ccc(Cl)cc4F)CC3)n(C[C@@H]3CCO3)c2c1 [Compound 331, (S)-2-((4-(4-((4-chloro-2-fluorobenzyl)oxy)thiazol-5-yl)-3,6-dihydropyridin-1(2H)-yl)methyl)-1-(oxetan-2-ylmethyl)-1H-benzo[d]imidazole-6-carboxylic acid] | 17.9 | – | < 15 | – |
| N#Cc1ccc(COc2nc(-c3ccc(Cc4nc5ccc(C(=O)O)nc5n4C[C@@H]4CCO4)c(F)c3)ccc2F)c(F)c1 [Compound 284, (S)-2-(4-(6-(4-cyano-2-fluorobenzyloxy)-5-fluoropyridin-2-yl)-2-fluorobenzyl)-3-(oxetan-2-ylmethyl)-3H-imidazo[4,5-b]pyridine-5-carboxylic acid] | 25.5 | – | < 15 | – |
| N#Cc1ccc(COc2nc(-c3ccc(Cc4nc5ccc(C(=O)O)nc5n4C[C@@H]4CCO4)cc3F)ccc2F)c(F)c1 [Compound 289, (S)-2-(4-(6-((4-cyano-2-fluorobenzyl)oxy)-5-fluoropyridin-2-yl)-3-fluorobenzyl)-3-(oxetan-2-ylmethyl)-3H-imidazo[4,5-b]pyridine-5-carboxylic acid] | 29.6 | – | < 15 | – |
| O=C(O)c1ccc2nc(Cn3ccc(-c4cccc(OCc5ccc(Cl)cc5F)n4)cc3=O)n(C[C@@H]3CCO3)c2c1 [Compound 323, (S)-2-((6-((4-chloro-2-fluorobenzyl)oxy)-2′-oxo-[2,4′-bipyridin]-1′(2′H)-yl)methyl)-1-(oxetan-2-ylmethyl)-1H-benzo[d]imidazole-6-carboxylic acid] | – | – | < 15 | 19.4 |
| N#Cc1ccc(COc2cccc(-c3ccc(Cc4nc5ccc(C(=O)O)nc5n4C[C@@H]4CCO4)cc3F)n2)c(F)c1 [Compound 293, (S)-2-(4-(6-((4-cyano-2-fluorobenzyl)oxy)pyridin-2-yl)-3-fluorobenzyl)-3-(oxetan-2-ylmethyl)-3H-imidazo[4,5-b]pyridine-5-carboxylic acid] | 32 | – | < 15 | – |
| N#Cc1ccc(COc2cccc(-c3cc(F)c(Cc4nc5ccc(C(=O)O)cc5n4C[C@@H]4CCO4)cc3F)n2)c(F)c1 [Compound 271, (S)-2-(4-(6-((4-cyano-2-fluorobenzyl)oxy)pyridin-2-yl)-2,5-difluorobenzyl)-1-(oxetan-2-ylmethyl)-1H-benzo[d]imidazole-6-carboxylic acid] | 28.5 | – | < 15 | – |
| O=C(O)c1ccc2nc(CN3CC=C(c4csnc4OCc4ccc(Cl)cc4F)CC3)n(C[C@@H]3CCO3)c2c1 [Compound 332, (S)-2-((4-(3-(4-chloro-2-fluorobenzyloxy)isothiazol-4-yl)-5,6-dihydropyridin-(2H)-yl)methyl)-1-(oxetan-2-ylmethyl)-1H-benzo[d]imidazole-6-carboxylic acid] | 14.5 | – | < 15 | – |
| O=C(O)c1ccc2nc(CN3CC=C(c4csc(OCc5ccc(Cl)cc5F)n4)CC3)n(C[C@@H]3CCO3)c2c1 [Compound 247, (S)-2-((4-(2-((4-chloro-2-fluorobenzyl)oxy)thiazol-4-yl)-3,6-dihydropyridin-1(2H)-yl)methyl)-1-(oxetan-2-ylmethyl)-1H-benzo[d]imidazole-6-carboxylic acid] | – | 26.6 | < 15 | – |
